Legend:
Format in all cases: cell-based
A431 (epidermoid) = assay: MTT cytotoxicity assay, A431; conditions: Homo sapiens, A-431, 96 h, read-out: IC50 (nM) A431
Protocol: (§1) The cytotoxicity potential of the compounds of the invention 16c-h was compared with the comparative compounds 16a, 16b and GWL-78 in a number of tumour cell lines and the non-cancer cell line WI38 after 96 hours exposure using the MTT (3-(4,5-Dimethylthiazol-2-yl)-2,5-diphenyltetrazolium bromide) colorimetric assay, as described below.
(§2) A panel of several types of human cancer cell lines including epidermoid (A431), lung (A549), ovarian (A2780) and breast (MCF7 and MDAMB-231), as well as the non-tumour cell line WI38, were used to determine the cytotoxicity of the compounds. The cells were grown in normal conditions at 37° C. under a 5% CO2 humidified atmosphere, either in Dulbecco's Modified Eagle Medium or Modified Eagle Medium (depending on the cell line), supplemented with 10% fetal bovine serum (Biosera, UK), 1% L-glutamine, 1% non-essential amino acids and 0.05% hydrocortisone (Gibco, Invitrogen, USA). Cells were then seeded into 96-well plates in a total volume of 160 μl, and allowed to reach a 30-40% degree of confluence before starting the experiment. The ligands were dissolved in sterilized ultrapure water at a maximum concentration of 100 μM, and serial decimal dilutions prepared. These were added to the cells in a volume of 40 μl. After 96 hours of continuous exposure to each ligand, the cytotoxicity was determined by the MTT (3-(4,5-Dimethylthiazol-2-yl)-2,5-diphenyltetrazolium bromide) (Lancaster Synthesis Ltd, UK) colorimetric assay (Skehan P, S. R., et al., Journal of the National Cancer Institute 1990, 82, 1107). Absorbance was quantified by spectrophotometry at A=570 nm (ELx808, Bio-Tek Instruments, Inc., USA). IC50 values were calculated by a dose-response analysis using the Origin 6.0™ software.

A549 (lung) = assay: MTT cytotoxicity assay, A549; conditions: Homo sapiens, A549, 96 h, read-out: IC50 (nM) A549
Protocol: as §1, §2

A2780 (ovarian) = assay: MTT cytotoxicity assay, A2780; conditions: Homo sapiens, A2780, 96 h, read-out: IC50 (nM) A2780
Protocol: as §1, §2

MCF7 (breast) = assay: MTT cytotoxicity assay, MCF7; conditions: Homo sapiens, MCF7, 96 h, read-out: IC50 (nM) MCF7
Protocol: as §1, §2

MDAMB-231 (breast) = assay: MTT cytotoxicity assay, MDAMB-231; conditions: Homo sapiens, MDA-MB-231, 96 h, read-out: IC50 (nM) MDAMB-231
Protocol: as §1, §2

Mia Paca 2 = assay: MTT cytotoxicity assay, Mia Paca 2; conditions: Homo sapiens, MIA PaCa-2, 96 h, read-out: IC50 (nM) Mia Paca 2
Protocol: as §1, §2

WI38 = assay: MTT cytotoxicity assay, non-tumour cell line WI38; conditions: Homo sapiens, WI-38, 96 h, read-out: IC50 (nM) WI38
Protocol: as §1, §2

primary CLL cells = assay: Annexin V/propidium iodide flow cytometry assay in primary CLL cells; conditions: CLL cell
Protocol: The cytotoxicity potential of the compounds of the invention 16c-h was also compared with the comparative compounds 16a, 16b and GWL-78 in a primary CLL cell lines using the Annexin V assay (van Engeland, M, et al., Cytometry 1998, 31, 1-9), as described below.
Freshly isolated peripheral blood CLL cells (1×10^8 mL^−1) were cultured in RPMI medium (Invitrogen, Paisley, U.K.) supplemented with 100 U/mL penicillin, […] streptomycin, and 10% fetal calf serum. The cells were incubated at 37° C. in a humidified 5% CO2 atmosphere in the presence of each compound. All compounds were dissolved in DMSO and were evaluated in serial dilutions against the primary CLL cells. In addition, control cultures were carried out to which no drug was added. The cytotoxic effects of the compounds were quantified using an annexin V/propidium iodide flow cytometry assay (Bender Medsystems, Vienna, Austria). All assays were performed in duplicate, and LD50 values were calculated from sigmoidal dose-response curves using the Prism 6.0 software (Graphpad Software Inc., San Diego, Calif.). The sigmoidal dose-response curves were derived by plotting log [compound concentration] against the percentage apoptosis induced by that concentration. A wide range of concentrations were used to establish the biologically active range for each individual compound.

Q: Which IC50 (A431 (epidermoid)) does the source give for `COC(=O)c1cc(-c2ccc(NC(=O)CCCOc3cc4c(cc3OC)C(=O)N3CCC[C@H]3C=N4)cc2)cn1C` [Compound 16a, (S)-methyl 4-(4-(4-(7-methoxy-5-oxo-2,3,5,11a-tetrahydro-1H-pyrrolo[2,1-c][1,4]benzodiazepine-8-yloxy)butanamido)phenyl)-1-methyl-1H-pyrrole-2-carboxylate] here?
A: 2.31 nM

Q: And the IC50 (A549 (lung))?
A: 7.5 nM

Q: And the IC50 (A2780 (ovarian))?
A: 1.87 nM

Q: And the IC50 (MCF7 (breast))?
A: 1.91 nM

Q: What about the IC50 (MDAMB-231 (breast)) of the same compound?
A: 2.11 nM

Q: What about the IC50 (Mia Paca 2) of the same compound?
A: 1.2 nM

Q: What about the IC50 (WI38) of the same compound?
A: 160 nM

Q: What about the IC50 (primary CLL cells) of the same compound?
A: 6.2 nM

Q: With `COC(=O)c1cc(-c2ccc(NC(=O)c3cc(-c4ccc(NC(=O)CCCOc5cc6c(cc5OC)C(=O)N5CCC[C@H]5C=N6)cc4)cn3C)cc2)cn1C` [Compound 16b, (S)-methyl 4-(4-(4-(4-(4-(7-methoxy-5-oxo-2,3,5,11a-tetrahydro-1H-pyrrolo[2,1-c][1,4]benzodiazepine-8-yloxy)butanamido)phenyl)-1-methyl-1H-pyrrole-2-carboxamido)phenyl)-1-methyl-1H-pyrrole-2-carboxylate] as the compound, how does the IC50 (A431 (epidermoid)) read?
A: 2.91 nM

Q: What about the IC50 (A549 (lung)) of the same compound?
A: 0.54 nM

Q: And the IC50 (A2780 (ovarian))?
A: 0.56 nM

Q: What about the IC50 (MCF7 (breast)) of the same compound?
A: 0.9 nM

Q: What about the IC50 (MDAMB-231 (breast)) of the same compound?
A: 0.46 nM

Q: What about the IC50 (Mia Paca 2) of the same compound?
A: 0.35 nM

Q: And the IC50 (WI38)?
A: 159 nM

Q: And the IC50 (primary CLL cells)?
A: 4.7 nM

Q: How did the IC50 (A431 (epidermoid)) turn out when `COC(=O)c1cc(NC(=O)c2cc(-c3ccc(NC(=O)CCCOc4cc5c(cc4OC)C(=O)N4CCC[C@H]4C=N5)cc3)cn2C)cn1C` [Compound 16c, (S)-methyl 4-(4-(4-(4-(7-methoxy-5-oxo-2,3,5,11a-tetrahydro-1H-pyrrolo[2,1-c][1,4]benzodiazepine-8-yloxy)butanamido)phenyl)-1-methyl-1H-pyrrole-2-carboxamido)-1-methyl-1H-pyrrole-2-carboxylate] was run?
A: 4.6 nM

Q: What about the IC50 (A549 (lung)) of the same compound?
A: 0.019 nM

Q: And the IC50 (A2780 (ovarian))?
A: 0.96 nM

Q: And the IC50 (MCF7 (breast))?
A: 1.7 nM

Q: What about the IC50 (MDAMB-231 (breast)) of the same compound?
A: 2.7 nM

Q: And the IC50 (Mia Paca 2)?
A: 0.34 nM

Q: And the IC50 (WI38)?
A: 426 nM

Q: And the IC50 (primary CLL cells)?
A: 2.1 nM

Q: Which results are given for `CCOC(=O)c1nc(NC(=O)c2cc(-c3ccc(NC(=O)CCCOc4cc5c(cc4OC)C(=O)N4CCC[C@H]4C=N5)cc3)cn2C)cn1C` [Compound 16d, (S)-ethyl 4-(4-(4-(4-(7-methoxy-5-oxo-2,3,5,11a-tetrahydro-1H-pyrrolo[2,1-c][1,4]benzodiazepine-8-yloxy)butanamido)phenyl)-1-methyl-1H-pyrrole-2-carboxamido)-1-methyl-1H-imidazole-2-carboxylate]?
A: IC50 (A431 (epidermoid)): 0.19 nM; IC50 (A549 (lung)): 0.47 nM; IC50 (A2780 (ovarian)): 0.15 nM; IC50 (MCF7 (breast)): 0.37 nM; IC50 (MDAMB-231 (breast)): 0.45 nM; IC50 (Mia Paca 2): 0.11 nM; IC50 (WI38): 1240 nM; IC50 (primary CLL cells): 3 nM

Q: With `COC(=O)c1cc(NC(=O)c2cc(NC(=O)c3cc(-c4ccc(NC(=O)CCCOc5cc6c(cc5OC)C(=O)N5CCC[C@H]5C=N6)cc4)cn3C)cn2C)cn1C` [Compound 16g, (S)-methyl 4-(4-(4-(4-(4-(7-methoxy-5-oxo-2,3,5,11a-tetrahydro-1H-pyrrolo[2,1-c][1,4]benzodiazepine-8-yloxy)butanamido)phenyl)-1-methyl-1H-pyrrole-2-carboxamido)-1-methyl-1H-pyrrole-2-carboxamido)-1-methyl-1H-pyrrole-2-carboxylate] as the compound, how does the IC50 (A431 (epidermoid)) read?
A: 0.86 nM

Q: And the IC50 (A549 (lung))?
A: 2.3 nM

Q: And the IC50 (A2780 (ovarian))?
A: 0.24 nM

Q: What about the IC50 (MCF7 (breast)) of the same compound?
A: 0.31 nM

Q: What about the IC50 (MDAMB-231 (breast)) of the same compound?
A: 0.59 nM

Q: And the IC50 (Mia Paca 2)?
A: 0.31 nM

Q: What about the IC50 (WI38) of the same compound?
A: 41.3 nM

Q: What about the IC50 (primary CLL cells) of the same compound?
A: 0.96 nM

Q: How did the IC50 (A431 (epidermoid)) turn out when `COC(=O)c1cc(NC(=O)c2nc(NC(=O)c3cc(-c4ccc(NC(=O)CCCOc5cc6c(cc5OC)C(=O)N5CCC[C@H]5C=N6)cc4)cn3C)cn2C)cn1C` [Compound 16h, (S)-methyl 4-(4-(4-(4-(4-(7-methoxy-5-oxo-2,3,5,11a-tetrahydro-1H-pyrrolo[2,1-c][1,4]benzodiazepine-8-yloxy)butanamido)phenyl)-1-methyl-1H-pyrrole-2-carboxamido)-1-methyl-1H-imidazole-2-carboxamido)-1-methyl-1H-pyrrole-2-carboxylate] was run?
A: 0.306 nM

Q: And the IC50 (A549 (lung))?
A: 0.45 nM

Q: What about the IC50 (MCF7 (breast)) of the same compound?
A: 0.075 nM

Q: And the IC50 (MDAMB-231 (breast))?
A: 0.015 nM

Q: What about the IC50 (Mia Paca 2) of the same compound?
A: 0.25 nM

Q: And the IC50 (WI38)?
A: 65.6 nM

Q: And the IC50 (primary CLL cells)?
A: 0.037 nM
